Among the data in PMC8880564, “Design, Synthesis, and Biological Evaluation of a Novel VEGFR-2 Inhibitor Based on a 1,2,5-Oxadiazole-2-Oxide Scaffold with MAPK Signaling Pathway Inhibition” (Pharmaceuticals, 2022) are activity values, retold here.

Holding throughout (test): NCI-60 one-dose SRB screening
Holding throughout (format): cell-based

One assay deals with UACC-62. The note with it: Homo sapiens, UACC-62, Melanoma, 10 µM one dose, 48 h, read-out: growth percentage.
The test system of another assay is NCI-H23. The note with it: Homo sapiens, NCI-H23, Non-Small Cell Lung Cancer, 10 µM one dose, 48 h, read-out: growth percentage.
A further assay relates to SR. Particulars: Homo sapiens, Leukemia, 10 µM one dose, 48 h, read-out: growth percentage.
The test system of the next assay is OVCAR-4. The note with it: Homo sapiens, OVCAR-4, Ovarian Cancer, 10 µM one dose, 48 h, read-out: growth percentage.
The next assay concerns T-47D. The note with it: Homo sapiens, T47D, Breast Cancer, 10 µM one dose, 48 h, read-out: growth percentage.
For the next assay, the system named is LOX IMVI. The note with it: Homo sapiens, Melanoma, 10 µM one dose, 48 h, read-out: growth percentage.
In a further assay the test system is SK-OV-3. Particulars: Homo sapiens, SK-OV-3, Ovarian Cancer, 10 µM one dose, 48 h, read-out: growth percentage.
Another assay has as its system PC-3. Particulars: Homo sapiens, PC-3, Prostate Cancer, 10 µM one dose, 48 h, read-out: growth percentage.
Another assay relates to COLO 205. Particulars: Homo sapiens, COLO 205, Colon Cancer, 10 µM one dose, 48 h, read-out: growth percentage.
The test system of another assay is A498. The note with it: Homo sapiens, A498, Renal Cancer, 10 µM one dose, 48 h, read-out: growth percentage.
The next assay has as its system EKVX. The note with it: Homo sapiens, Non-Small Cell Lung Cancer, 10 µM one dose, 48 h, read-out: growth percentage.
Another assay has as its system MDA-MB-231/ATCC. Particulars: Homo sapiens, Breast Cancer, 10 µM one dose, 48 h, read-out: growth percentage.
Another assay deals with IGROV1. The note with it: Homo sapiens, IGROV-1, IGROV1, Ovarian Cancer, 10 µM one dose, 48 h, read-out: growth percentage.
The next assay has as its system OVCAR-3. The note with it: Homo sapiens, OVCAR-3, Ovarian Cancer, 10 µM one dose, 48 h, read-out: growth percentage.
In a further assay the test system is CCRF-CEM. The note with it: Homo sapiens, Leukemia, 10 µM one dose, 48 h, read-out: growth percentage.
The next assay relates to ACHN. The note with it: Homo sapiens, Renal Cancer, 10 µM one dose, 48 h, read-out: growth percentage.
A further assay relates to KM12. Particulars: Homo sapiens, KM12, Colon Cancer, 10 µM one dose, 48 h, read-out: growth percentage.
A further assay deals with HCT-15. Particulars: Homo sapiens, HCT-15, Colon Cancer, 10 µM one dose, 48 h, read-out: growth percentage.
In a further assay the test system is HCC-2998. Particulars: Homo sapiens, HCC-2998, Colon Cancer, 10 µM one dose, 48 h, read-out: growth percentage.
For the next assay, the system named is K-562. Particulars: Homo sapiens, K562, K-562, Leukemia, 10 µM one dose, 48 h, read-out: growth percentage.
For another assay, the system named is MDA-MB-435. Particulars: Homo sapiens, MDA-MB-435, Melanoma, 10 µM one dose, 48 h, read-out: growth percentage.
The test system of a further assay is BT-549. The note with it: Homo sapiens, BT-549, Breast Cancer, 10 µM one dose, 48 h, read-out: growth percentage.

As for `Cc1nc(Nc2ccc(OCc3c(-c4ccccc4)no[n+]3[O-])cc2)c2c(C)nn(-c3ccc(Br)cc3)c2n1` [6h, 3-((4-((1-(4-bromophenyl)-3,6-dimethyl-1H-pyrazolo[3,4-d]pyrimidin-4-yl)amino)phenoxy)methyl)-4-phenyl-1,2,5-oxadiazole 2-oxide], the activity at 10 µM in the assay on UACC-62 came to 80.2%; in the assay with NCI-H23, 96.6%; in the assay with SR it was 72%; with OVCAR-4 it was 97%; in the assay with T-47D, 81.4%; in the assay on LOX IMVI, 98.9%. Besides, the activity at 10 µM came out at 109% in the assay with SK-OV-3; 67.4% with PC-3; 94.4% in the assay with COLO 205; 110% in the assay with A498; 92.3% in the assay on EKVX; 100% with MDA-MB-231/ATCC. The activity at 10 µM worked out at 99% in the assay on IGROV1; 104% with OVCAR-3; 103% in the assay with CCRF-CEM; 98.7% in the assay with ACHN; 97.7% in the assay with KM12; 79% in the assay with HCT-15. Also, the activity at 10 µM in the assay on HCC-2998 is 106%; in the assay on K-562 it was 83.6%; in the assay on MDA-MB-435 it was 96.7%; in the assay with BT-549, 91.1%.
`Nc1ccc(NCc2c(-c3ccccc3)no[n+]2[O-])cc1` [compound 11, 3-(((4-aminophenyl)amino)methyl)-4-phenyl-1,2,5-oxadiazole 2-oxide]: the activity at 10 µM with UACC-62 was determined as 95.5%; with NCI-H23, 105%; in the assay with SR, 104%; in the assay on OVCAR-4 it was 118%; in the assay with T-47D it was 101%; with LOX IMVI, 107%. Besides, the activity at 10 µM worked out at 105% with SK-OV-3; 95.1% in the assay on PC-3; 121% with COLO 205; 108% with A498; 109% in the assay with EKVX; 104% with MDA-MB-231/ATCC. Also, the activity at 10 µM in the assay on IGROV1 came out at 88.7%; in the assay with OVCAR-3 it was 111%; in the assay with CCRF-CEM it was 83.4%; with ACHN, 104%; in the assay on KM12 it was 103%; in the assay on HCT-15 it was 104%. Besides, the activity at 10 µM with HCC-2998 came out at 118%; in the assay with K-562, 99.1%; with MDA-MB-435, 90.2%; in the assay with BT-549, 103%.
For the compound `Cc1nn(-c2ccc(Br)cc2)c2nc(C(F)(F)F)nc(Nc3ccc(NCc4c(-c5ccccc5)no[n+]4[O-])cc3)c12` [12c, 3-(((4-((1-(4-bromophenyl)-3-methyl-6-(trifluoromethyl)-1H-pyrazolo[3,4-d]pyrimidin-4-yl)amino)phenyl)amino)methyl)-4-phenyl-1,2,5-oxadiazole 2-oxide], the activity at 10 µM in the assay on UACC-62 was 62.5%; with NCI-H23 it was 91.6%; with SR, 55.5%; with OVCAR-4 it was 81.3%; with T-47D, 85.6%; in the assay with LOX IMVI it was 48.5%. Besides, the activity at 10 µM was determined as 82.7% with SK-OV-3; 47% in the assay on PC-3; 73.2% in the assay with COLO 205; 117% with A498; 71.1% in the assay with EKVX; 65.9% with MDA-MB-231/ATCC. Also, the activity at 10 µM in the assay with IGROV1 worked out at 59.6%; in the assay on OVCAR-3 it was 91.6%; in the assay on CCRF-CEM it was 60.4%; with ACHN, 68.1%; with KM12 it was 74.3%; in the assay on HCT-15 it was 34.6%. Moreover, the activity at 10 µM in the assay on HCC-2998 worked out at 96.1%; with K-562, 51.4%; in the assay on MDA-MB-435, 86.6%; with BT-549, 97.4%.
Consider `Cc1nn(-c2ccccc2)c2nc(C(F)(F)F)nc(Nc3ccc(NCc4c(-c5ccccc5)no[n+]4[O-])cc3)c12` [12a, 3-(((4-((3-methyl-1-phenyl-6-(trifluoromethyl)-1H-pyrazolo[3,4-d]pyrimidin-4-yl)amino)phenyl)amino)methyl)-4-phenyl-1,2,5-oxadiazole 2-oxide], for which the activity at 10 µM with UACC-62 came out at 64.9%; in the assay on NCI-H23, 96.7%; in the assay on SR, 58.7%; in the assay with OVCAR-4 it was 70.8%; with T-47D, 80.5%; with LOX IMVI it was 58%. In addition, the activity at 10 µM worked out at 96.9% in the assay with SK-OV-3; 45.6% in the assay on PC-3; 73.6% in the assay with COLO 205; 94.4% in the assay on A498; 73.2% in the assay on EKVX; 84.4% in the assay with MDA-MB-231/ATCC. The activity at 10 µM in the assay on IGROV1 stood at 77.9%; in the assay on OVCAR-3, 105%; in the assay with CCRF-CEM it was 59.2%; in the assay on ACHN, 77.7%; in the assay on KM12 it was 56.7%; in the assay on HCT-15, 42%. Also, the activity at 10 µM stood at 85.6% with HCC-2998, 39.8% in the assay with K-562, 78.7% with MDA-MB-435 and 103% with BT-549.
Consider `Cc1nn(-c2ccc(Br)cc2)c2nc(CCl)[nH]c(=O)c12` [13c], for which the activity at 10 µM in the assay on UACC-62 was determined as 101%; in the assay with NCI-H23, 103%; in the assay on OVCAR-4 it was 116%; in the assay on T-47D, 91.5%; with LOX IMVI it was 98.5%; with SK-OV-3, 104%. Further, the activity at 10 µM in the assay on PC-3 was 96.3%; in the assay with COLO 205, 103%; in the assay with A498, -88.8%; in the assay on EKVX, 99.5%; in the assay with MDA-MB-231/ATCC, 94.1%; with IGROV1, 95.1%. Further, the activity at 10 µM with OVCAR-3 is 97.4%; in the assay on CCRF-CEM, 83.7%; in the assay with ACHN it was 94.8%; in the assay with KM12, 83.6%; in the assay with HCT-15, 103%; in the assay on HCC-2998, 105%. For the same compound, the values for the activity at 10 µM in the assay on K-562, in the assay with MDA-MB-435 and in the assay on BT-549 were 75.6%, 101% and 101%, respectively.
On to `Cc1nn(-c2ccccc2)c2nc(CCl)[nH]c(=O)c12` [13b], for which the activity at 10 µM is 97.9% in the assay with UACC-62; 98.8% in the assay on NCI-H23; 39.8% in the assay on SR; 90.9% with OVCAR-4; 66% with T-47D; 101% with LOX IMVI. For the same compound, the activity at 10 µM came to 105% with SK-OV-3; 102% in the assay with PC-3; 110% in the assay on COLO 205; 4.55% in the assay with A498; 99.2% in the assay on EKVX; 88.4% in the assay with MDA-MB-231/ATCC. Also, the activity at 10 µM is 96.2% in the assay on IGROV1; 97.4% with OVCAR-3; 90.2% in the assay with ACHN; 53.3% with KM12; 90.6% with HCT-15; 108% in the assay with HCC-2998. The figures for the activity at 10 µM in the assay with K-562, in the assay with MDA-MB-435 and with BT-549 were 19.2%, 99% and 100%, respectively.
